# According to US20070232594A1, “Aromatic amide derivatives, medicinal compositions containing the same, medical uses of both” (priority 2004, published 2007):
# What was measured:
# human V2 receptor [1] = target: T1, human V2 receptor (Homo sapiens, UniProt P30518); test: Binding experiment for human V2 receptor ([3H]-AVP displacement, CHO cell membranes); design: purchased Packard BioScience; host or cells: CHO cells (membranes); settings: [3H]-AVP binding, CHO cell membranes expressing human V2 receptor; Ki calculated from IC50 and Kd
# T1 sequence (P30518 whole entry): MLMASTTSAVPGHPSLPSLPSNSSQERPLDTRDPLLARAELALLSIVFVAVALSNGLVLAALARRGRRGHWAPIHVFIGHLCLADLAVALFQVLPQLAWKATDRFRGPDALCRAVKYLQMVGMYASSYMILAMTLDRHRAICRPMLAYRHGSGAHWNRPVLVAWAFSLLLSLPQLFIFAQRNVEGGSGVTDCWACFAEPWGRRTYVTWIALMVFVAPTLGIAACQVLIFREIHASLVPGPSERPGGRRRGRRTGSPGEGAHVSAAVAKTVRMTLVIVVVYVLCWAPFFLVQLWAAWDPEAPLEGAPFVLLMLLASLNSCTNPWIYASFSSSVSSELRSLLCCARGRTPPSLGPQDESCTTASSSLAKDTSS
# Description: Binding Experiment for Human V2 Receptor
# Test compounds were dissolved in dimethylsulfoxide at 10 mM. The affinities for human V2 receptor were determined by an inhibition against [^3H]-Arginie vasopressin (AVP) (Perkin elmer Japan) binding to the human V2 receptor using CHO cell membranes expressed human V2 receptor (Packard BioScience). Cell membranes suspension was prepared by suspending the cell membranes as mentioned above with Assay buffer (50 mM Tris-HCl, 10 mM MgCl2, 0.1% bovine serum albumin (BSA), pH7.4) at an adequate protein concentration. The test compound solutions were prepared by diluting the dimethylsulfoxide solution of the test compound as mentioned above with Assay buffer at final concentration of 10 nM, 100 nM, 1 μM and 10 μM (in this diluting procedure, concentration of dimethylsulfoxide was adjusted to be 0.5% at each concentration of the test compound). Cell membranes suspension (50 μL), 3 nM of [^3H]-AVP (50 μL), Assay buffer (50 μL) and the solution of the test compounds at each concentrations (50 μL) were added to MultiScreen 96-well plate (Millipore) and the mixture was incubated for an hour at 25° C. with shaking slightly. After filtration by aspiration, the plate was washed with ice-cold washing buffer (50 mM Tris-HCl, 10 mM MgCl2, pH 7.4) for three times. After dry the plate, Microscinti-20 (Packard) was added to each well and the plate was shaken slightly, and then radioactivities of each well were counted with a micro plate scintillation counter, TopCount (Packard). Non-specific binding of [^3H]-AVP for cell membranes was determined by adding 1 μM of cold AVP substituted for the test compounds. The concentration of the test compounds inhibiting the specific binding of [^3H]-AVP by 50% was considered as IC50 value.
# The Calculation of Kd Value of [^3H]-AVP for the Cell Membranes Expressed Human V2 Receptor
# The suspension of the cell membranes expressed human V2 receptor was prepared with diluting adequately with the Assay buffer as mentioned above. In consideration for the radioactivity of [^3H]-AVP, six different concentrations (final concentration; ranging from approximately 100 pM to 6000 pM) of [^3H]-AVP were prepared by serial dilution by from 2 to 3 fold with the Assay buffer. The cell membranes suspension (50 μL), each concentrations of [^3H]-AVP (50 μL), the Assay buffer (50 μL) and 1 μM of cold AVP or the Assay buffer were added to MultiScreen 96-well plate (Millipore) and the mixture was incubated for an hour at 25° C. with shaking slightly. The specific bindings (Bvalue) of each concentrations of the [^3H]-AVP were determined by the method as mentioned above and free-bound contents (F value) at each concentrations of the [^3H]-AVP were determined. The Kd value was calculated by Scatchard analysis using the B value and the F value.
# human V2 receptor [2] = target: T1, human V2 receptor; test: Study to confirm the agonism of human V2 receptor (intracellular Ca2+, HEK293 cells coexpressing human V2 receptor and Gqs chimeric protein); type: cell-based; design: expressed in transfected cells; host or cells: HEK293 cells (American Type Culture Collection), transient transfection with pCI-neo/hV2 and pLEC-Gqs5; settings: for EC50: intracellular Ca2+, HEK293 cells coexpressing human V2 receptor and Gqs; for IA (intrinsic activity): maximum response relative to AVP = 1
# Description: The Study to Confirm the Agonism of Human V2 Receptor
# The experiment to confirm the response of the test compounds to human V2 receptor was carried out using the cells prepared as described below in order to use this confirmation study to see the agonism of human V2 receptor of the test compounds.
# The test compounds were dissolved in dimethylsulfoxide at 10 mM and solutions of the test compounds were prepared by 10-fold serial dilution with the Assay buffer (0.1% BSA, 20 mM HEPES/Hank's balanced salt solution, pH 7.4) at the concentration of 0.1 nM to 10 μM, which were used in this study.
# Human V2 receptor couples with Gs protein, one of the G-coupling protein, and consequently produces cyclic adenosine 3′, 5′-monophosphate (cAMP) via adenylate cyclase. This cAMP produce can be substituted to intracellular increase of Ca^2+ with coexpressing Gqs, a chimeric protein, and human V2 receptor (Mol. Pharmacol., Vol. 50, pp. 885-890, 1996). The responses of the test compounds for human V2 receptor were quantified by measuring this intracellular Ca^2+. The changes of intracellular Ca^2+ after adding the test compounds at each concentration as mentioned above (0.1 nM to 10 μM) were measured with a FlexStation (Molecular Devices) using a FLIPR CALCIUM ASSAY KIT (Molecular Devices).
# The intrinsic activities (IA) of the test compounds were calculated from the maximum response of the test compounds as that of AVP was considered to be 1. In case of a full agonist, the EC50 values of the test compounds were calculated as the maximum response of AVP was considered to be 100% and in the case of a partial agonist, EC50 values of test compounds were calculated as the maximum response of own test compounds were considered to be 100%. The concentration that achieved to 50% response of the maximum response in a concentration-response curve was considered as EC50 value. The values of EC50 obtained in this study were shown in Table 68 described below as indications of the agonism of human V2 receptor.
# The Preparation of the Cells Using Confirmation Study of an Agonism of Human V2, Receptor (HEK293 Cells Coexpressed Human V2 Receptor and Gqs Chimeric Protein)
# HEK293 cells (American Type Culture Collection) were incubated in the Eagle's Minimum Essential Medium (EMEM, Invitrogen) containing 1 mM sodium pyruvate, nonessential amino acids (0.1 mM), streptomycin (100 μg/mL), penicillin (100 U/mL), 10% fetal calf serum (Sanko chemicals) in an incubator with 5% CO2 at 37° C. The transfection was carried out by adding pCI-neo hV2 expression vector, expression vector inserted with the sequence coding Gqs chimeric protein (pLEC-Gqs5, LiveWare, Molecular Devices) and Lipofectamine2000 (Invitrogen), all diluted with OPTI-MEM I Reduced Serum Medium I (Invitrogen), to the cell suspension which was prepared from the confluent cells suspended with EMEM as mentioned above without antibiotics at 1×10^6 cells/mL. After the transfection, the cells (HEK293 cells coexpressed human V2 receptor and Gqs chimeric protein) were incubated in an incubator with 5% CO2 for two days and were used as cells for confirming agonism of human V2 receptor, and used for assessment of the test compounds. The expression plasmid vector of human V2 receptor represented as pCI-neo/hV2 above was constructed by the method as described below.
# The Method of Construction of Human V2 Receptor Expression Plasmid Vector
# cDNA library was obtained from reverse transcription of human kidney total RNA using SuperScript II RNase H-reverse transcriptase (Invitrogen) and oligo dT. The DNA fragment encoding human V2 receptor was amplified by the PCR method using the cDNA library as a template, primers used in combination of each forward primer (sequence no. 1-3 shown below) and each reverse primer (sequence no. 4-6 shown below) respectively and pfu DNA polymerase (Stratagene). This amplified DNA fragment and pCR-blunt kit (Invitrogen), a cloning plasmid vector, were ligated by a general method of the kit. […]
# [3] = target: T2, cytochrome P-450 (CYP3A4) (Homo sapiens, UniProt P08684); test: Inhibitory effect on cytochrome P-450 (CYP3A4) from human liver microsome; type: in vitro ADME; settings: test compound 10 μM, testosterone 50 μM substrate, 5 minutes at 37° C., rate of substrate metabolism versus control
# T2 construct: human liver microsome (1.0 mg/mL) as enzyme; from tissue; host or cells: human liver microsomes
# T2 sequence (P08684 whole entry): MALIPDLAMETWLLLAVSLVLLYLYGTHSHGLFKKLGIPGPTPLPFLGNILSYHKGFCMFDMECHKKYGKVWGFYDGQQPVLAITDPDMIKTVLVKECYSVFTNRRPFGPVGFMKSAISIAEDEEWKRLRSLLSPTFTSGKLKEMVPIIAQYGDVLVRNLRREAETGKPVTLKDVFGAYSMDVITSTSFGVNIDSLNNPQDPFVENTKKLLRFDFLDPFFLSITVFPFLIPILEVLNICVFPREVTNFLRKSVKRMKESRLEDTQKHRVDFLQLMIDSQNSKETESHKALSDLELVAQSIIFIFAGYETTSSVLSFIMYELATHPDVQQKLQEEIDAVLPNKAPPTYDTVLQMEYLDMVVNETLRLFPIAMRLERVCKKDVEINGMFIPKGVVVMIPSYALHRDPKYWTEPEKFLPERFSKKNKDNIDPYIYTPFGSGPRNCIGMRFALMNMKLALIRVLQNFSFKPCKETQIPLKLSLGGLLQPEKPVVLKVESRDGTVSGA
# Description: The Experiment for Inhibitory Effect on Cytochrome P-450 (CYP3A4) Originated from Human Liver Microsome
# The test compounds dissolved in dimethylsulfoxide at 10 mM were added to 0.1 M phosphate buffer (pH7.4) containing 10 mM MgCl2, and human liver microsome (1.0 mg/mL) as enzyme and testosterone (50 μM) as a substrate for CYP3A4 were added to this 0.1M phosphate buffer in order to prepare phosphate buffer solution of the test compounds at final concentration of 10 μM (final volume 0.2 mL). The reaction was started by the addition of NADPH (1.0 mg/mL) and then incubated for 5 minutes at 37° C. After acetonitrile was added to stop the reaction, the residual concentration of testosterone was determined using LC/MS/MS, and calculated the rate of metabolism of substrate from the ratio of content of testosterone at end to that at start (A value). As the same way, the experiment except for the test compounds was carried out and remaining testosterone was determined in the same way as mentioned above. The rate of metabolism of substrate was calculated from the ratio of content of testosterone at end to that at start of the reaction (B value) as control value. The ratio of A value against B value was determined as a degree of incidence of test compounds on metabolic rate, which was shown in Table 70.
# [4] = system: anesthetized rats infused with hypotonic solution; test: Antidiuretic effect on diuresis induced by hypotonic solution in anesthetized rats; type: in vivo, rat; settings: 10 μg/kg intravenously
# Description: The Study of Antidiuretic Effect-the Confirmation Study of Antidiuretic Effect on the Diuretic Activity Induced by Loading Hypotonic Solution in the Anesthetized Rats Infused with Hypotonic Solution
# It has been reported that plasma AVP level was decreased with intravenous infusion of hypotonic solution (J. Endocrinol., Vol. 141, pp. 59-67, 1994). The antidiuretic effect of the test compounds in the rats induced a diuretic condition was determined by the method as reported by Angchanpen et al (Br. J. Pharmacol., Vol. 93, pp. 151-155, 1988). The test compounds were dissolved in dimethylsulfoxide at 10 mM, and used in the study. Male SD rats (200-400 g weight) were anesthetized with 100 mg/kg of Inactin (SIGMA) intraperitonealy and each cannula was inserted into trachea, jugular vein, bladder and femoral vein, respectively. […] The urine volume obtained via cannula inserted into bladder was measured every 10 minutes. […]
# The average of urine volume measured for three 10 minutes periods before the administration was defined as the pre value (0%). After the administration of the test compounds, the urine volume was measured every 10 minutes. The antidiuretic effect, namely the decrease of the urine volume, induced by administration of test compounds was calculated from the decreasing rate of urine volume (minus %) against the pre value. […]
# Male SD rats = test: Acute toxicity test; type: in vivo, rat; settings: 3 mg/kg intravenously, N=3, one hour observation, urethane anesthesia
# Description: Male SD rats (250-300 g weight) were divided into some groups (N=3) and each cannula was inserted into trachea and jugular vein under anesthesia with urethane (1.5 g/kg, subcutaneously). The test compound solutions were prepared with an adequate solvent to be a dosage of 3 mg/kg, and then the solution was administered intravenously via cannula. The survival rate was determined for an hour experimental period.
Ki (human V2 receptor [1]),EC50 (human V2 receptor [2]),IA (intrinsic activity) (human V2 receptor [2]),SMILES,(A value/B value) × 100 [3],"Antidiuretic effect (decreasing rate of urine volume) ([4]; anesthetized male SD rats, against pre value)",Duration time ([4]; period until decreasing rate of urine volume restored to −20%),Dead (Male SD rats)
103 nM,39 nM,0.35,"O=C(O)CN1Cc2ccccc2N(C(=O)c2ccc(-c3ccccc3)cc2)CC1=O [Example 31-11, 1-(biphenyl-4-carbonyl)-3-oxo-1,2,3,5-tetrahydrobenzo[e]-1,4-diazepin-4-ylacetic acid]",–,–,–,–
97.7 nM,1 nM,1.09,"O=C1CN(C(=O)c2ccc(N3CCCC3)cc2Cl)c2ccccc2CN1Cc1nnn[nH]1 [Example 15, 1-(2-Chloro-4-pyrrolidin-1-ylbenzoyl)-4-(1H-tetrazol-5-ylmethyl)-1,2,4,5-tetrahydrobenzo[e]-1,4-diazepin-3-one]",–,–,–,–
322 nM,6 nM,1.09,"Cc1cnc(CN2Cc3ccccc3N(C(=O)c3ccc(OCCO)cc3Cl)CC2=O)o1 [Example 2-21, 1-[2-chloro-4-(2-hydroxyethoxy)benzoyl]-4-(5-methyloxazole-2-ylmethyl)-1,2,4,5-tetrahydrobenzo[e]-1,4-diazepin-3-one]",–,–,–,–
–,44 nM,1.18,"Cc1nnc(CN2Cc3ccccc3N(C(=O)c3ccc(OCCCO)nc3C)CC2=O)o1 [Example 31-8, 1-[6-(3-hydroxypropoxy)-2-methylpyridine-3-carbonyl]-4-(5-methyl-1,3,4-oxadiazol-2-ylmethyl)-1,2,4,5-tetrahydrobenzo[e]-1,4-diazepin-3-one]",–,–,–,–
–,50 nM,0.93,"Cc1nnc(CN2Cc3ccccc3N(C(=O)c3ccc(-n4cccn4)nc3)CC2=O)o1 [Example 1-29, 4-(5-methyl-1,3,4-oxadiazol-2-yl-methyl)-1-[6-(pyrazol-1-yl)py-ridine-3-carbonyl]-1,2,4,5-tetra-hydrobenzo[e]-1,4-di-azepin-3-one]",–,–,–,–
197 nM,10 nM,–,"O=C(O)CN1Cc2ccccc2N(C(=O)c2ccc(OCC(F)(F)F)cc2Cl)CC1=O [Example 2-5, 1-[2-chloro-4-(2,2,2-trifluoroethoxy)-benzoyl]-3-oxo-1,2,3,5-tetrahydrobenzo[e]-1,4-diazepin-4-yl acetic acid]",–,–,–,–

SMILES,Ki (human V2 receptor [1]),EC50 (human V2 receptor [2]),IA (intrinsic activity) (human V2 receptor [2]),(A value/B value) × 100 [3],"Antidiuretic effect (decreasing rate of urine volume) ([4]; anesthetized male SD rats, against pre value)",Duration time ([4]; period until decreasing rate of urine volume restored to −20%),Dead (Male SD rats)
"CCOC(=O)CN1Cc2ccccc2N(C(=O)c2ccc(N3CCCC3)cc2Cl)CC1=O [Example 1-7, ethyl [1-(2-chloro-4-pyrro-lidin-1-ylbenzoyl)-3-ox-o-1,2,3,5-tetra-hydrobenzo[e]-1,4-di-azepin-4-yl]acetate]",86.6 nM,4 nM,0.92,89.9,−68.6% ^,30 min,0/3
